ChEMBL document CHEMBL3352299, “Antiproliferative 4-(1,2,4-oxadiazol-5-yl)piperidine-1-carboxamides, a new tubulin inhibitor chemotype” (Bioorg Med Chem Lett, 2014)

Legend:
K562 [1] = assay: Induction of mitotic arrest in human K562 cells assessed as mitotic indices at 100 uM by light microscopy; type: functional
[2] = Antiproliferative activity against human UACC62 cells after 3 days by fluorescence assay; type: functional; conditions: UACC-62, 72 h
SW-620 = assay: Antiproliferative activity against human SW620 cells after 3 days by fluorescence assay; type: functional; conditions: SW-620, 72 h
HOP-62 = assay: Antiproliferative activity against human HOP62 cells after 3 days by fluorescence assay; type: functional; conditions: HOP-62, 72 h
ACHN = assay: Antiproliferative activity against human ACHN cells after 3 days by fluorescence assay; type: functional; conditions: 72 h
SNB-75 = assay: Antiproliferative activity against human SNB75 cells after 3 days by fluorescence assay; type: functional; conditions: SNB-75, 72 h
[3] = Antiproliferative activity against human RPMI8226 cells after 3 days by fluorescence assay; type: functional; conditions: RPMI-8226, 72 h
DU-145 [4] = assay: (§1) Antiproliferative activity against human DU145 cells after 3 days by fluorescence assay; type: functional; conditions: DU-145, 72 h
NCI-H23 = assay: Antiproliferative activity against human NCI-H23 cells after 3 days by fluorescence assay; type: functional; conditions: NCI-H23, 72 h
NCI-H460 = assay: Antiproliferative activity against human NCI-H460 cells after 3 days by fluorescence assay; type: functional; conditions: NCI-H460, 72 h
SN12C = assay: Antiproliferative activity against human SN12C cells after 3 days by fluorescence assay; type: functional; conditions: 72 h
[5] = Antiproliferative activity against human PC3 cells after 3 days by fluorescence assay; type: functional; conditions: PC-3, 72 h
T47D = assay: Antiproliferative activity against human T47D cells after 3 days by fluorescence assay; type: functional; conditions: 72 h
NCI-H322M = assay: Antiproliferative activity against human NCI-H322M cells after 3 days by fluorescence assay; type: functional; conditions: 72 h
K562 [6] = assay: Antiproliferative activity against human K562 cells after 3 days by fluorescence assay; type: functional; conditions: K562, 72 h
[7] = Antiproliferative activity against human BT549 cells after 3 days by fluorescence assay; type: functional; conditions: BT-549, 72 h
[8] = Antiproliferative activity against human RXF393 cells after 3 days by fluorescence assay; type: functional; conditions: RXF 393, 72 h
U-251 = assay: Antiproliferative activity against human U251 cells after 3 days by fluorescence assay; type: functional; conditions: U-251, 72 h
SK-MEL-28 = assay: Antiproliferative activity against human SK-MEL-28 cells after 3 days by fluorescence assay; type: functional; conditions: SK-MEL-28, 72 h
Tubulin (Homo sapiens) [9] = molecular target: T1, Tubulin (Homo sapiens) (UniProt P68371+Q9H4B7+P0DPH7+P68366+Q13509+Q71U36+P04350+Q3ZCM7+P07437+P68363+Q9BQE3+Q6PEY2+Q13885+Q9BVA1+Q9BUF5); assay: Displacement of [3H]-colchicine from tubulin (unknown origin) at 1 uM after 10 mins by turbidimetrically relative to control; type: protein-complex assay
A549 = assay: Antiproliferative activity against human A549 cells after 3 days by fluorescence assay; type: functional; conditions: A549, 72 h
[10] = Antiproliferative activity against human SKOV3 cells after 3 days by fluorescence assay; type: functional; conditions: SK-OV-3, 72 h
Tubulin (Homo sapiens) [11] = molecular target: T1, Tubulin (Homo sapiens); assay: Displacement of [3H]-colchicine from tubulin (unknown origin) at 50 uM after 10 mins by turbidimetrically relative to control; type: protein-complex assay
[12] = Antiproliferative activity against human SF295 cells after 3 days by fluorescence assay; type: functional; conditions: SF-295, 72 h
Malme-3M = assay: Antiproliferative activity against human MALME-3M cells after 3 days by fluorescence assay; type: functional; conditions: 72 h
TK-10 = assay: Antiproliferative activity against human TK10 cells after 3 days by fluorescence assay; type: functional; conditions: TK-10, 72 h
Tubulin (Homo sapiens) [13] = molecular target: T1, Tubulin (Homo sapiens); assay: Displacement of [3H]-colchicine from tubulin (unknown origin) at 5 uM after 10 mins by turbidimetrically relative to control; type: protein-complex assay
[14] = Antiproliferative activity against human COLO205 cells after 3 days by fluorescence assay; type: functional; conditions: COLO 205, 72 h
MDA-MB-435 = assay: Antiproliferative activity against human MDA-MB-435 cells after 3 days by fluorescence assay; type: functional; conditions: MDA-MB-435, 72 h
[15] = Antiproliferative activity against human EKVX cells after 3 days by fluorescence assay; type: functional; conditions: 72 h
[16] = Antiproliferative activity against human HOP92 cells after 3 days by fluorescence assay; type: functional; conditions: HOP-92, 72 h
[17] = Antiproliferative activity against human OVCAR5 cells after 3 days by fluorescence assay; type: functional; conditions: OVCAR-5, 72 h
NCI-H226 = assay: Antiproliferative activity against human NCI-H226 cells after 3 days by fluorescence assay; type: functional; conditions: NCI-H226, 72 h
SR = assay: Antiproliferative activity against human SR cells after 3 days by fluorescence assay; type: functional; conditions: 72 h
SK-MEL-5 = assay: Antiproliferative activity against human SK-MEL-5 cells after 3 days by fluorescence assay; type: functional; conditions: SK-MEL-5, 72 h
A498 = assay: Antiproliferative activity against human A498 cells after 3 days by fluorescence assay; type: functional; conditions: A498, 72 h
[18] = Antiproliferative activity against human HCT116 cells after 3 days by fluorescence assay; type: functional; conditions: HCT-116, 72 h
[19] = Antiproliferative activity against human UACC257 cells after 3 days by fluorescence assay; type: functional; conditions: UACC-257, 72 h
MDA-MB-231 = assay: Antiproliferative activity against human MDA-MB-231 cells after 3 days by fluorescence assay; type: functional; conditions: MDA-MB-231, 72 h
DU-145 [20] = assay: as §1; type: functional; conditions: DU-145, 72 h; remark: listed apart in the source
[21] = Antiproliferative activity against human OVCAR8 cells after 3 days by fluorescence assay; type: functional; conditions: OVCAR-8, 72 h
HL-60(TB) = assay: Antiproliferative activity against human HL-60(TB) cells after 3 days by fluorescence assay; type: functional; conditions: HL-60, 72 h
MDA-MB-468 = assay: Antiproliferative activity against human MDA-MB-468 cells after 3 days by fluorescence assay; type: functional; conditions: MDA-MB-468, 72 h
[22] = Antiproliferative activity against human NCI-ADR-RES cells after 3 days by fluorescence assay; type: functional; conditions: 72 h
[23] = Antiproliferative activity against human SF539 cells after 3 days by fluorescence assay; type: functional; conditions: SF-539, 72 h
[24] = Antiproliferative activity against human OVCAR3 cells after 3 days by fluorescence assay; type: functional; conditions: OVCAR-3, 72 h
SNB-19 = assay: Antiproliferative activity against human SNB19 cells after 3 days by fluorescence assay; type: functional; conditions: SNB-19, 72 h
[25] = Antiproliferative activity against human MOLT4 cells after 3 days by fluorescence assay; type: functional; conditions: MOLT-4, 72 h
[26] = Antiproliferative activity against human UO31 cells after 3 days by fluorescence assay; type: functional; conditions: UO-31, 72 h
CCRF-CEM = assay: Antiproliferative activity against human CCRF-CEM cells after 3 days by fluorescence assay; type: functional; conditions: 72 h
MCF7 = assay: Antiproliferative activity against human MCF7 cells after 3 days by fluorescence assay; type: functional; conditions: MCF7, 72 h
NCI-H522 = assay: Antiproliferative activity against human NCI-H522 cells after 3 days by fluorescence assay; type: functional; conditions: NCI-H522, 72 h
[27] = Antiproliferative activity against human Hs 578T cells after 3 days by fluorescence assay; type: functional; conditions: 72 h
[28] = Antiproliferative activity against human HCT15 cells after 3 days by fluorescence assay; type: functional; conditions: HCT-15, 72 h
HT-29 = assay: Antiproliferative activity against human HT-29 cells after 3 days by fluorescence assay; type: functional; conditions: HT-29, 72 h
M14 = assay: Antiproliferative activity against human M14 cells after 3 days by fluorescence assay; type: functional; conditions: M14, 72 h
CAKI-1 = assay: Antiproliferative activity against human CAKI-1 cells after 3 days by fluorescence assay; type: functional; conditions: CAKI-1, 72 h
[29] = Antiproliferative activity against human OVCAR4 cells after 3 days by fluorescence assay; type: functional; conditions: OVCAR-4, 72 h
Tubulin = assay: Displacement of [3H]-colchicine from tubulin (unknown origin) after 10 mins by turbidimetrically; type: protein-complex assay, Homo sapiens
[30] = Antiproliferative activity against human LOXIMVI cells after 3 days by fluorescence assay; type: functional; conditions: LOX IMVI, 72 h
SK-MEL-2 = assay: Antiproliferative activity against human SK-MEL-2 cells after 3 days by fluorescence assay; type: functional; conditions: SK-MEL-2, 72 h
KM12 = assay: Antiproliferative activity against human KM12 cells after 3 days by fluorescence assay; type: functional; conditions: KM12, 72 h
786-0 = assay: Antiproliferative activity against human 786-0 cells after 3 days by fluorescence assay; type: functional; conditions: 786-0, 72 h
IGROV-1 = assay: Antiproliferative activity against human IGROV1 cells after 3 days by fluorescence assay; type: functional; conditions: IGROV-1, 72 h
SF-268 = assay: Antiproliferative activity against human SF268 cells after 3 days by fluorescence assay; type: functional; conditions: SF-268, 72 h
[31] = Antiproliferative activity against human HCC2998 cells after 3 days by fluorescence assay; type: functional; conditions: HCC 2998, 72 h

Compound: COc1ccc(/C=C\c2cc(OC)c(OC)c(OC)c2)cc1O [COMBRETASTATIN A4]
- Activity (K562 [1]): 82%

Compound: COc1cccc(NC(=O)N2CCC(c3nc(-c4ccc(C)cc4)no3)CC2)c1
- GI50 [2]: 6.61 µM
- GI50 (SW-620): 3.98 µM
- GI50 (HOP-62): 4.68 µM
- GI50 (ACHN): 5.89 µM
- GI50 (SNB-75): 7.94 µM
- GI50 [3]: 3.31 µM
- GI50 (DU-145 [4]): 3.63 µM
- GI50 (NCI-H23): 6.03 µM
- GI50 (NCI-H460): 3.47 µM
- GI50 (SN12C): 11 µM
- GI50 [5]: 4.37 µM
- GI50 (T47D): 5.5 µM
- GI50 (NCI-H322M): 11.7 µM
- GI50 (K562 [6]): 355 nM
- GI50 [7]: 13.8 µM
- GI50 [8]: 4.07 µM
- GI50 (U-251): 4.17 µM
- GI50 (SK-MEL-28): 13.2 µM
- inhibition (Tubulin (Homo sapiens) [9]): 5.7%
- GI50 (A549): 5.13 µM
- GI50 [10]: 4.47 µM
- inhibition (Tubulin (Homo sapiens) [11]): 19%
- GI50 [12]: 3.09 µM
- GI50 (Malme-3M): 4.17 µM
- GI50 (TK-10): 9.55 µM
- inhibition (Tubulin (Homo sapiens) [13]): 8.2%
- GI50 [14]: 3.8 µM
- GI50 (MDA-MB-435): 537 nM
- GI50 [15]: 6.76 µM
- GI50 [16]: 3.31 µM
- GI50 [17]: 13.2 µM
- GI50 (NCI-H226): 9.12 µM
- GI50 (SR): 417 nM
- GI50 (SK-MEL-5): 3.39 µM
- GI50 (A498): 5.01 µM
- GI50 [18]: 4.79 µM
- GI50 [19]: 16.6 µM
- GI50 (MDA-MB-231): 18.2 µM
- GI50 (DU-145 [20]): 4.5 µM
- GI50 [21]: 7.08 µM
- GI50 (HL-60(TB)): 603 nM
- GI50 (MDA-MB-468): 2450 nM
- GI50 [22]: 2750 nM
- GI50 [23]: 3.47 µM
- GI50 [24]: 2630 nM
- GI50 (SNB-19): 8.71 µM
- GI50 [25]: 5.5 µM
- GI50 [26]: 6.46 µM
- GI50 (CCRF-CEM): 3.55 µM
- GI50 (MCF7): 3.24 µM
- GI50 (NCI-H522): 4.07 µM
- GI50 [27]: 5.5 µM
- GI50 [28]: 4.9 µM
- GI50 (HT-29): 3.31 µM
- GI50 (M14): 3.24 µM
- GI50 (CAKI-1): 5.75 µM
- GI50 [29]: 7.24 µM
- IC50 (Tubulin): 3 µM
- GI50 [30]: 5.5 µM
- GI50 (SK-MEL-2): 11 µM
- GI50 (KM12): 3.31 µM
- GI50 (786-0): 6.03 µM
- GI50 (IGROV-1): 9.12 µM
- GI50 (SF-268): 7.24 µM
- GI50 [31]: 5.01 µM
